Target: T1, LPA1 (Homo sapiens, UniProt Q92633)
T1 construct: ProLink (PK) beta-galactosidase enzyme-fragment tag; host or cells: CHO-K1
Assay: LPA1 calcium flux assay (LPA1 functional antagonist assay)
Type: cell-based
Conditions: PathHunter CHO-K1 EDG2 β-Arrestin cell line; calcium indicator dye; stimulated with EC80 concentration of LPA; FLIPR Tetra
Protocol: Following overnight culture, cells were loaded with calcium indicator dye from the HitHunter Calcium No WashPLUS Assay kit (Eurofins DiscoverX Corporation, Cat #93-0091) for 45 minutes at 37° C. […] After compound addition, assay plates were equilibrated to room temperature for 30 minutes. […] IC50 values were determined by Chemical and Biological Information System from ChemInnovation Software, Inc. The compounds of this invention were tested for their activity to inhibit LPA1 as determined in an LPA1 functional antagonist assay as described herein.

T1 sequence (Q92633 whole entry, the tested form may be a part): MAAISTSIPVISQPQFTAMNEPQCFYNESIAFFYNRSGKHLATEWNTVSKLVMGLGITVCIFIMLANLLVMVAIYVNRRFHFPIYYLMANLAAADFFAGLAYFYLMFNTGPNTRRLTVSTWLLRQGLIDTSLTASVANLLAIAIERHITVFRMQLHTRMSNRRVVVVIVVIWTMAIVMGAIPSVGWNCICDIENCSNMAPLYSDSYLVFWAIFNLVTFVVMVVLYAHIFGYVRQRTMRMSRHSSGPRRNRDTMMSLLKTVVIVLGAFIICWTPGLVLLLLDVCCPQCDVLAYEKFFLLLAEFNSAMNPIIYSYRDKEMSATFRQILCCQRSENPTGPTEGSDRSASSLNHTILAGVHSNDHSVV

SMILES	IC50 [nM]
CCCc1ccc(=O)n(Cc2c(-c3ccc(N4C[C@@H](CC(=O)O)CC(F)(F)C4)c(C#N)n3)nnn2C)c1 [Example 49, (S)-2-(1-(2-cyano-6-(1-methyl-5-((2-oxo-5-propylpyridin-1(2H)-yl)methyl)-1H-1,2,3-triazol-4-yl)pyridin-3-yl)-5,5-difluoropiperidin-3-yl)acetic acid]	> 5000
CCc1nc(-c2nnn(C)c2Cn2ccc(CC3CC3)c(C)c2=O)ccc1N1C[C@H](CC(=O)O)CC(F)(F)C1 [Example 11, (R)-2-(1-(6-(5-((4-(cyclopropylmethyl)-3-methyl-2-oxopyridin-1(2H)-yl)methyl)-1-methyl-1H-1,2,3-triazol-4-yl)-2-ethylpyridin-3-yl)-5,5-difluoropiperidin-3-yl)acetic acid]	> 5000
CCc1nc(-c2nnn(C)c2CN2C[C@H](CC3CC3)N(C)C2=O)ccc1N1C[C@@H](CC(=O)O)CC(F)(F)C1 [Example 61, 2-((S)-1-(6-(5-(((S)-4-(cyclopropylmethyl)-3-methyl-2-oxoimidazolidin-1-yl)methyl)-1-methyl-1H-1,2,3-triazol-4-yl)-2-ethylpyridin-3-yl)-5,5-difluoropiperidin-3-yl)acetic acid]	500 to 5000
CCc1nc(-c2nnn(C)c2COc2nccc(N3CCCC3)n2)ccc1N1CCC[C@H](CC(=O)O)C1 [Example 83, (R)-2-(1-(2-ethyl-6-(1-methyl-5-(((4-(pyrrolidin-1-yl)pyrimidin-2-yl)oxy)methyl)-1H-1,2,3-triazol-4-yl)pyridin-3-yl)piperidin-3-yl)acetic acid]	100 to 500
CCCn1ccc(=O)c(OCc2c(-c3ccc(N4C[C@@H](CC(=O)O)CC(F)(F)C4)c(CC)n3)nnn2C)c1 [Example 107, (S)-2-(1-(2-ethyl-6-(1-methyl-5-(((4-oxo-1-propyl-1,4-dihydropyridin-3-yl)oxy)methyl)-1H-1,2,3-triazol-4-yl)pyridin-3-yl)-5,5-difluoropiperidin-3-yl)acetic acid]	> 5000
Cc1nc(-c2nnn(C)c2COc2nccc(C3CCC3)n2)ccc1CN1CC(C(=O)O)CC(F)(F)C1 (single isomer, unassigned) [Example 148, (R) or (S)-1-((6-(5-(((4-cyclobutylpyrimidin-2-yl)oxy)methyl)-1-methyl-1H-1,2,3-triazol-4-yl)-2-methylpyridin-3-yl)methyl)-5,5-difluoropiperidine-3-carboxylic acid]	< 100
CCCc1ccc(=O)n(Cc2c(-c3ccc(N4CCC[C@H](CC(=O)O)C4)c(CC)n3)cnn2C)c1 [Example 42, (R)-2-(1-(2-ethyl-6-(1-methyl-5-((2-oxo-5-propylpyridin-1(2H)-yl)methyl)-1H-pyrazol-4-yl)pyridin-3-yl)piperidin-3-yl)acetic acid]	500 to 5000
CCc1nc(-c2nnn(C)c2COc2cn(CC3CC3)nn2)ccc1N1C[C@@H](CC(=O)O)CC(F)(F)C1 [Example 126, (S)-2-(1-(6-(5-(((1-(cyclopropylmethyl)-1H-1,2,3-triazol-4-yl)oxy)methyl)-1-methyl-1H-1,2,3-triazol-4-yl)-2-ethylpyridin-3-yl)-5,5-difluoropiperidin-3-yl)acetic acid]	100 to 500
CCCc1ccc(=O)n(Cc2c(-c3cc(F)c(N4CCCC(CC(=O)O)C4)c(CC)n3)nnn2C)c1 (stereo not shown) [Example 48, 2-(1-(2-ethyl-4-fluoro-6-(1-methyl-5-((2-oxo-5-propylpyridin-1(2H)-yl)methyl)-1H-1,2,3-triazol-4-yl)pyridin-3-yl)piperidin-3-yl)acetic acid]	> 5000
CCCc1cn(Cc2c(-c3ccc(N4C[C@@H](CC(=O)O)CC(F)(F)C4)c(C)n3)nnn2C)ccc1=O (stereo in doubt) [Example 43, (S)-2-(5,5-difluoro-1-(2-methyl-6-(1-methyl-5-((4-oxo-3-propylpyridin-1(4H)-yl)methyl)-1H-1,2,3-triazol-4-yl)pyridin-3-yl)piperidin-3-yl)acetic acid]	> 5000
CCCc1cccnc1OCc1c(-c2ccc(N3CCC(CC(=O)O)C(F)(F)C3)c(C)n2)nnn1C (stereo not shown) [Example 113, 2-(3,3-difluoro-1-(2-methyl-6-(1-methyl-5-(((3-propylpyridin-2-yl)oxy)methyl)-1H-1,2,3-triazol-4-yl)pyridin-3-yl)piperidin-4-yl)acetic acid]	500 to 5000
CCc1nc(-c2cnn(C)c2COc2noc(CC3CC3)n2)ncc1N1C[C@@H](CC(=O)O)CC(F)(F)C1 [Example 118, (S)-2-(1-(2-(5-(((5-(cyclopropylmethyl)-1,2,4-oxadiazol-3-yl)oxy)methyl)-1-methyl-1H-pyrazol-4-yl)-4-ethylpyrimidin-5-yl)-5,5-difluoropiperidin-3-yl)acetic acid]	> 5000
CCCc1ccc(=O)n(Cc2c(-c3ncc(CN4CC(C(=O)O)CC(F)(F)C4)c(CC)n3)cnn2C)c1 (single isomer, unassigned) [Example 161, (R) or (S)-1-((4-ethyl-2-(1-methyl-5-((2-oxo-5-propylpyridin-1(2H)-yl)methyl)-1H-pyrazol-4-yl)pyrimidin-5-yl)methyl)-5,5-difluoropiperidine-3-carboxylic acid]	500 to 5000
CCCc1ccnn(CCc2c(-c3ccc(N4CC(CC(=O)O)CC(F)(F)C4)c(C)n3)nnn2C)c1=O (stereo not shown) [Example 44, 2-[5,5-difluoro-1-(2-methyl-6-{1-methyl-5-[2-(6-oxo-5-propyl-1,6-dihydropyridazin-1-yl)ethyl]-1H-1,2,3-triazol-4-yl}pyridin-3-yl)piperidin-3-yl]acetic acid]	> 5000
CCC(C)n1ccn(Cc2c(-c3ccc(N4C[C@@H](CC(=O)O)CC(F)(F)C4)c(C)n3)nnn2C)c1=O (stereo partly drawn) [Example 73, 2-((3S)-1-(6-(5-((3-(sec-butyl)-2-oxo-2,3-dihydro-1H-imidazol-1-yl)methyl)-1-methyl-1H-1,2,3-triazol-4-yl)-2-methylpyridin-3-yl)-5,5-difluoropiperidin-3-yl)acetic acid]	> 5000

More lines, now with the values ahead:

IC50 [nM]	SMILES
< 100	CCc1nc(-c2nnn(C)c2COc2nccc(C3CCC3)n2)ccc1N1CCC[C@H](CC(=O)O)C1 [Example 74, (R)-2-(1-(6-(5-(((4-cyclobutylpyrimidin-2-yl)oxy)methyl)-1-methyl-11H-1,2,3-triazol-4-yl)-2-ethylpyridin-3-yl)piperidin-3-yl)acetic acid]
> 5000	CCCc1ccc(=O)n(Cc2c(-c3ccc(N4CCCC(CC(=O)O)C4=O)c(CC)n3)nnn2C)c1 (single isomer, unassigned) [Example 53, (S) or (R)-2-(1-(2-ethyl-6-(1-methyl-5-((2-oxo-5-propylpyridin-1(2H)-yl)methyl)-1H-1,2,3-triazol-4-yl)pyridin-3-yl)-2-oxopiperidin-3-yl)acetic acid]
100 to 500	CCc1nc(-c2nnn(C)c2COc2ncnn2CC2CC2)ccc1N1C[C@@H](CC(=O)O)CC(F)(F)C1 [Example 122, (S)-2-(1-(6-(5-(((1-(cyclopropylmethyl)-1H-1,2,4-triazol-5-yl)oxy)methyl)-1-methyl-1H-1,2,3-triazol-4-yl)-2-ethylpyridin-3-yl)-5,5-difluoropiperidin-3-yl)acetic acid]
> 5000	CCCc1ccc(=O)n(Cc2c(-c3ccc(N4C[C@H](F)C[C@@H](CC(=O)O)C4)c(CC)n3)nnn2C)c1 (single isomer, unassigned) [Example 46, 2-((3R,5R) or (33,5S)-1-(2-ethyl-6-(1-methyl-5-((2-oxo-5-propylpyridin-1(2H)-yl)methyl)-1H-1,2,3-triazol-4-yl)pyridin-3-yl)-5-fluoropiperidin-3-yl)acetic acid]
100 to 500	CCc1nc(-c2nnn(C)c2Cn2nc(CC3CC3)ccc2=O)ccc1N1C[C@@H](CC(=O)O)CC(F)(F)C1 [Example 35, (S)-2-(1-(6-(5-((3-(cyclopropyImethyl)-6-oxopyridazin-1(6H)-yl)methyl)-1-methyl-1H-1,2,3-triazol-4-yl)-2-ethylpyridin-3-yl)-5,5-difluoropiperidin-3-yl)acetic acid]
< 100	CCc1nc(-c2nnn(C)c2COc2cnn(CC(C)C)n2)ccc1N1C[C@@H](CC(=O)O)CC(F)(F)C1 [Example 129, (S)-2-(1-(2-ethyl-6-(5-(((2-isobutyl-2H-1,2,3-triazol-4-yl)oxy)methyl)-1-methyl-1H-1,2,3-triazol-4-yl)pyridin-3-yl)-5,5-difluoropiperidin-3-yl)acetic acid]
< 100	Cc1nc(-c2nnn(C)c2COc2nccc(C3CCC3)n2)ccc1N1C[C@@H](CC(=O)O)CC(F)(F)C1 [Example 76, (S)-2-(1-(6-(5-(((4-cyclobutylpyrimidin-2-yl)oxy)methyl)-1-methyl-1H-1,2,3-triazol-4-yl)-2-methylpyridin-3-yl)-5,5-difluoropiperidin-3-yl)acetic acid]
500 to 5000	CCc1nc(-c2nnn(C)c2Cn2nc(CC3CC3)n(C)c2=O)ccc1N1C[C@@H](CC(=O)O)CC(F)(F)C1 [Example 68, (S)-2-(1-(6-(5-((3-(cyclopropylmethyl)-4-methyl-5-oxo-4,5-dihydro-1H-1,2,4-triazol-1-yl)methyl)-1-methyl-1H-1,2,3-triazol-4-yl)-2-ethylpyridin-3-yl)-5,5-difluoropiperidin-3-yl)acetic acid]
> 5000	CCCc1ccc(=O)n(Cc2c(-c3ncc(N4C[C@@H](CC(=O)O)CC(F)(F)C4)c(CC)n3)cnn2C)c1 [Example 37, (S)-2-(1-(4-ethyl-2-(1-methyl-5-((2-oxo-5-propylpyridin-1(2H)-yl)methyl)-1H-pyrazol-4-yl)pyrimidin-5-yl)-5,5-difluoropiperidin-3-yl)acetic acid]
100 to 500	CCc1nc(-c2nnn(C)c2Cn2cc(CC3CC3)nn2)ccc1N1C[C@@H](CC(=O)O)CC(F)(F)C1 [Example 131, (S)-2-(1-(6-(5-((4-(cyclopropylmethyl)-1H-1,2,3-triazol-1-yl)methyl)-1-methyl-1H-1,2,3-triazol-4-yl)-2-ethylpyridin-3-yl)-5,5-difluoropiperidin-3-yl)acetic acid]

Reference: patent US12780800B1, “Triazole-pyridinyl substituted azacyclohexyl acetic acid compounds as LPA receptor antagonists” (Viva Star Biosciences Limited, priority 2021, dated 2022)
